# Results as given in US5428021A, “Human leukocyte elastase (HLE) inhibitors, and related pharmaceutical compositions and methods of use” (SRI International, priority 1994, dated 1995).
# Tests used:
# Assay type in all cases: biochemical
# [1] = biological target: T1, Elastase (human neutrophil (HLE)) (Homo sapiens, UniProt P08246); assay: Inhibition of human leukocyte (neutrophil) elastase, progress curve method (methoxy-Suc-Ala-Ala-Pro-Val-pNA substrate); details: for Ki / koff / kon: 25 mM HEPES, 1M NaCl, 0.1% BRIJ 35, pH 6.5, 25° C.; for kinact/KI: pH 6.5, read-out: kobs /[I] Enzyme; for kobs /[I] HLE / kobs /[I] Enzyme: relative selectivity, HLE over HLE
# T1 construct: purchased Calbiochem
# T1 sequence (P08246 30-267): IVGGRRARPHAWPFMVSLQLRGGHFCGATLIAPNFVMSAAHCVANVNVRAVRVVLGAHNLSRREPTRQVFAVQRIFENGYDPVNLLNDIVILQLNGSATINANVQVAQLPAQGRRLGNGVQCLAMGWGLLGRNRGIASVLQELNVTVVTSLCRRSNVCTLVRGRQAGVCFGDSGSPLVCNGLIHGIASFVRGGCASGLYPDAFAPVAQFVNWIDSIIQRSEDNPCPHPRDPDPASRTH
# Procedure: (§1) Enzymes and their substrates, listed below, were obtained from Calbiochem.
# (§2) Enzyme and substrate concentrations were chosen to obtain pseudo first order conditions for the entire timecourse, with uninhibited enzyme maintaining a constant rate of product formation for longer than the fifteen minute sampling time.
# (§3) Additional compounds within the scope of the invention were evaluated using the progress curve method of Stein et al. to determine the kinetic constants kon, koff, as well as the pKi and relative selectivity for HLE over other serine proteases.
# [2] = biological target: T2, Elastase (porcine pancreatic) (PPE) (Sus scrofa, UniProt P00772); assay: Inhibition of porcine pancreatic elastase (PPE), progress curve method (Suc-Ala-Ala-Ala-pNA substrate); details: for kinact/KI: pH 7.5, read-out: kobs /[I] Enzyme; for kobs /[I] HLE / kobs /[I] Enzyme: relative selectivity, HLE over PPE
# T2 construct: purchased Calbiochem
# T2 sequence (P00772 27-266): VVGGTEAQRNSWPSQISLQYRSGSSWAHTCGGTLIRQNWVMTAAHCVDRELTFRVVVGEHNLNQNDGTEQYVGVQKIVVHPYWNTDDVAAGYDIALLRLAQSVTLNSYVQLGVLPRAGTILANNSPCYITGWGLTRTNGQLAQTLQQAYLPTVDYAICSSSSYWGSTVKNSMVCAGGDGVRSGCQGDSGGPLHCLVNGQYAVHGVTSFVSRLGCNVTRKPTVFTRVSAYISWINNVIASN
# Procedure: as §1, §2, §3
# [3] = biological target: T3, Cathepsin-G (human neutrophil) (Homo sapiens, UniProt P08311); assay: Inhibition of cathepsin G, progress curve method (Suc-Ala-Ala-Pro-Phe-pNA substrate); details: for kinact/KI: pH 6.5, read-out: kobs /[I] Enzyme; for kobs /[I] HLE / kobs /[I] Enzyme: relative selectivity, HLE over Cathepsin G
# T3 construct: purchased Calbiochem
# T3 sequence (P08311 21-255): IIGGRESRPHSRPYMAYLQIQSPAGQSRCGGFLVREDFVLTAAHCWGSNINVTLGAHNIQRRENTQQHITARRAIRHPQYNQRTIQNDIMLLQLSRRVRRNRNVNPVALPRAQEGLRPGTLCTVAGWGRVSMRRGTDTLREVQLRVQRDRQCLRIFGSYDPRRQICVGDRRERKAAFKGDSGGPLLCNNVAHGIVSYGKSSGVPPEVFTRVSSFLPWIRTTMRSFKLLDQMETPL
# Procedure: as §1
# Cathepsin-G (human neutrophil
# Suc--Ala--Ala--Pro--Phe--
# as §2, §3
# [4] = biological target: T4, α Chymotrypsin (bovine pancreatic) (Bos taurus, UniProt P00766); assay: Inhibition of chymotrypsin, progress curve method (Suc-Gly-Gly-Phe-pNA substrate); details: for kinact/KI: pH 7.5, read-out: kobs /[I] Enzyme; for kobs /[I] HLE / kobs /[I] Enzyme: relative selectivity, HLE over Chymotrypsin
# T4 construct: purchased Calbiochem
# Procedure: as §1
# Suc--Gly--Gly--Phe--pNA
# as §2, §3
# [5] = biological target: T5, Trypsin (bovine pancreatic) (Bos taurus, UniProt P00760); assay: Inhibition of trypsin, progress curve method (Bz-Arg-pNA substrate); details: for kinact/KI: pH 7.5, read-out: kobs /[I] Enzyme; for kobs /[I] HLE / kobs /[I] Enzyme: relative selectivity, HLE over Trypsin
# T5 construct: purchased Calbiochem
# T5 sequence (P00760 24-246): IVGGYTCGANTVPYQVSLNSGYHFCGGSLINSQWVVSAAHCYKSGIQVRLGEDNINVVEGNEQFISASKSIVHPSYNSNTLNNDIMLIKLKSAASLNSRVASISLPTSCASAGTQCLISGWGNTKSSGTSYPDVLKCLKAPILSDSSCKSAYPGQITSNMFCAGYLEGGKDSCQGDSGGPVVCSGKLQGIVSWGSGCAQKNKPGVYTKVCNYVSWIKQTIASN
# Procedure: as §1, §2, §3
Structure (SMILES),Ki ([1]; HLE) [nM],"koff ([1]; pH 6.5, HLE) [s⁻¹]","kon ([1]; pH 6.5, HLE) [M⁻¹ s⁻¹]",kon ([1]; HLE),koff ([1]; HLE) [s⁻¹],kinact/KI [1] [M⁻¹ s⁻¹],kobs /[I] HLE / kobs /[I] Enzyme [1],kinact/KI [2] [M⁻¹ s⁻¹],kobs /[I] HLE / kobs /[I] Enzyme [2],kinact/KI [3] [M⁻¹ s⁻¹],kobs /[I] HLE / kobs /[I] Enzyme [3],kinact/KI [4] [M⁻¹ s⁻¹],kobs /[I] HLE / kobs /[I] Enzyme [4],kinact/KI [5] [M⁻¹ s⁻¹],kobs /[I] HLE / kobs /[I] Enzyme [5]
CCOc1nc2ccc(N)c(C)c2c(=O)o1,0.0145,2.3e-05,750000,–,–,–,–,–,–,–,–,–,–,–,–
"CCOc1nc2ccc(C(C)NC(=O)[C@@H](NC(=O)OC(C)(C)C)C(C)C)c(C)c2c(=O)o1 (single isomer, unassigned) [7 Isomer A]",0.0589,1.8e-05,–,"304,000 M^-1 sec^-1",–,–,–,–,–,–,–,–,–,–,–
"CCOc1nc2ccc(C(C)NC(=O)[C@@H](NC(=O)OC(C)(C)C)C(C)C)c(C)c2c(=O)o1 (single isomer, unassigned) [7 Isomer B]",0.0145,–,–,"1,100,000 M^-1 sec^-1",0.000016,1.1e+06,1,967,1140,967,1140,2570,430,1550,710
"CCOc1nc2ccc(NC(=O)CCNC(=O)OC(C)(C)C)c(C)c2c(=O)o1 [Example 2, 6-(N-tert-butyloxycarbonyl-β-alanyl)amino-5-methyl-2-ethoxy-4H-3,1-benzoxazin-4-one]",1.1,0.000404,365000,–,–,365000,1,2860,130,460,790,3500,100,200,1830
"CCOc1nc2ccc(NC(=O)CCN(C)C(=O)OC(C)(C)C)c(C)c2c(=O)o1 [Example 3, 6-(N-tert-butyloxycarbonyl-N-methyl-β-alanyl)-amino-5-methyl-2-ethoxy-3,1-benzoxazin-4-one]",1.32,0.00042,320000,–,–,–,–,–,–,–,–,–,–,–,–
CCOc1nc2ccc(N)c(CC)c2c(=O)o1 [Example 4],0.1,4.7e-05,470000,–,–,–,–,–,–,–,–,–,–,–,–
"CCOc1nc2ccc(NC(=O)CCN(C)C(=O)OC(C)(C)C)c(CC)c2c(=O)o1 [Example 5, 6-(N-tert-butyloxycarbonyl-N-methyl-β-alanyl)-amino-5-ethyl-2-ethoxy-3,1-benzoxazin-4-one]",0.107,3e-05,281000,–,–,–,–,–,–,–,–,–,–,–,–
"CCOc1nc2ccc(NC(=O)CCN(C)S(=O)(=O)c3ccc(C)cc3)c(CC)c2c(=O)o1 [Example 6, 6-(N-4-methylbenzenesulfonyl-N-methyl-β-alanyl)-amino-5-ethyl-2-ethoxy-4H-3,1-benzoxazin-4-one]",0.0933,6.9e-05,745000,–,–,745000,1,3450,220,340,2190,11900,60,80,9312
"CCOc1nc2ccc(C(C)NC(=O)[C@H](C)NC(=O)OC(C)(C)C)c(C)c2c(=O)o1 (stereo partly drawn) [Example 8, 6-[1-(N-tert-butyloxycarbonyl-L-alanyl)-aminoethyl]-2-ethyloxy-5-methyl-4H-3,1-benzoxazin-4-one]",0.0331,1.7e-05,520000,–,–,–,–,–,–,–,–,–,–,–,–
"CCOc1nc2cccc(C)c2c(=O)o1 [positive control, reference compound]",0.513,7.2e-05,140000,–,–,–,–,–,–,–,–,–,–,–,–
